Measured values reported in ChEMBL document CHEMBL1201862, “PubChem BioAssay data set” (2004).
Active and inactive are the calls of the source.

Tests used:
[1] = biological target: T1, Replicative DNA helicase DnaB (Mycobacterium tuberculosis, UniProt P9WMR3); experiment: DnaB intein splicing inhibitors, dose response, biochemical, cell-free fluorescence (AID 449749); format: functional
T1 sequence (P9WMR3 whole entry): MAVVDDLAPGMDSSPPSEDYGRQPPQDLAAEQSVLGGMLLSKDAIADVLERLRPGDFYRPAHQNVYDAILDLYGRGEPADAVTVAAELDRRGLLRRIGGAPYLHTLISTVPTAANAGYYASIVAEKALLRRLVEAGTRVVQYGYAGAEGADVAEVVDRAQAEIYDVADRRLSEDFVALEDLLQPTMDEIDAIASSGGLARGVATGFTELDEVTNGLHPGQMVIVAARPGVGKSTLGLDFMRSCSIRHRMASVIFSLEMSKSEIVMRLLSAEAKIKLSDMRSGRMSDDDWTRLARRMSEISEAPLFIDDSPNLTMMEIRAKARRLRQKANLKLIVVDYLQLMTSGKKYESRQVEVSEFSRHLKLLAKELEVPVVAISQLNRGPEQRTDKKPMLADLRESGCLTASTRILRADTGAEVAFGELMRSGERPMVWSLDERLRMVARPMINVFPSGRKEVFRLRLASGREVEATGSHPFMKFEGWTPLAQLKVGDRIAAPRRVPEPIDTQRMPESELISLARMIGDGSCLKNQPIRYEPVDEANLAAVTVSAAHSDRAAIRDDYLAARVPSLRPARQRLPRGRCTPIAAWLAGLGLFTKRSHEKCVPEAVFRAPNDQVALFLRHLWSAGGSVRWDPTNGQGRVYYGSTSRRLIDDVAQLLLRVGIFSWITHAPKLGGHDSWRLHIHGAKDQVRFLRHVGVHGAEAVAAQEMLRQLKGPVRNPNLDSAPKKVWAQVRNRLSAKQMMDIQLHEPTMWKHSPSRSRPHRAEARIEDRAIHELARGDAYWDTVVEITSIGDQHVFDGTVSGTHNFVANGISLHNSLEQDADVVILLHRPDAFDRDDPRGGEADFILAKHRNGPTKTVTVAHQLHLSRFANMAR

[2] = biological target: Photoreceptor-specific nuclear receptor (Homo sapiens, UniProt Q9Y5X4); format: functional, cell-based;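 also: CHO-S cells with Gal4-NCOR and VP16-NR2E3 two-hybrid luciferase reporter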
Chain of Photoreceptor-specific nuclear receptor (Q9Y5X4 whole entry, the tested form may be a part): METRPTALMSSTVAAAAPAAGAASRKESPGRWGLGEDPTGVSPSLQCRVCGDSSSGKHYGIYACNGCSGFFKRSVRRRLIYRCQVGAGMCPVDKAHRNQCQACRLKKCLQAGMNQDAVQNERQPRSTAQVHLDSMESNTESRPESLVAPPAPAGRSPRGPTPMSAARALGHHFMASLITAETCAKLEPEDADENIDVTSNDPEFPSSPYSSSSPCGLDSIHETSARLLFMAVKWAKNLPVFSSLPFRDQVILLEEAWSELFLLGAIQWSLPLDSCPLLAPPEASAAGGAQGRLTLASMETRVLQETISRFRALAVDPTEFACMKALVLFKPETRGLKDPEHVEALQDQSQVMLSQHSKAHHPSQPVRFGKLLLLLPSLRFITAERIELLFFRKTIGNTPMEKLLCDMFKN

cells [3] = format: functional, cell-based
cells [4] = format: functional, cell-based; remark: listed apart in the source
Streptococcus = experiment: Group A Streptococcus viability loss, dose response, counter-screen for streptokinase expression inhibitor project, luminescence, BacTiterGlo (AID 1915); format: functional, organism-based;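 also: potency for reduction of bacterial viability or growth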
Streptokinase A = biological target: T2, Streptokinase A (Streptococcus pyogenes serotype M1, UniProt P10520); experiment: S. pyogenes streptokinase expression inhibitors, potency, dose response, plasminogen activation absorbance, OD405 (AID 1914); format: functional, Streptococcus pyogenes M1 GAS;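 also: secreted streptokinase activity via plasminogen activation per viability signal from cell pellet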
T2 sequence (P10520 whole entry): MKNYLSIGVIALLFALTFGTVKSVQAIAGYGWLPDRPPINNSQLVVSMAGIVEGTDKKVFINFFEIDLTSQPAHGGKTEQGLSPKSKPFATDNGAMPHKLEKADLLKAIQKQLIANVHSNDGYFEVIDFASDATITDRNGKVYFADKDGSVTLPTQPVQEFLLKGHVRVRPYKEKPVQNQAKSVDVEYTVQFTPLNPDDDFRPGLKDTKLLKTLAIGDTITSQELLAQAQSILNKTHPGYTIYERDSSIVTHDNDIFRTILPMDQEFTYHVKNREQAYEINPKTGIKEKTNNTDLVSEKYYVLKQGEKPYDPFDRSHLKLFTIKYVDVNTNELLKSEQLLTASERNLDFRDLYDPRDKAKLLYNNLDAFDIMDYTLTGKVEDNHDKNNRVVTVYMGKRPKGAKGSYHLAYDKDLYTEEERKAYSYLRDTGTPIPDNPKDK

Nonstructural protein 1 = Nonstructural protein 1 (Influenza A virus, UniProt Q194T2); format: functional, Influenza A virus (A/California/07/2009(H1N1))
Chain of Nonstructural protein 1 (Q194T2 whole entry): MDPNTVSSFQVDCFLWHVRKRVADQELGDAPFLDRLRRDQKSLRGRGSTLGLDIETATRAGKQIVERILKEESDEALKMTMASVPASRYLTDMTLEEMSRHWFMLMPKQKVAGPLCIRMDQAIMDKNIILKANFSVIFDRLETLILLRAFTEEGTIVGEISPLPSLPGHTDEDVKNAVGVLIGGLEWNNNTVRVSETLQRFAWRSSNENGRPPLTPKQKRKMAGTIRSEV

[5] = biological target: E3 ubiquitin-protein ligase Mdm2 (Homo sapiens, UniProt Q00987); experiment: enhancers of MDM2-luciferase reporter signal, concentration-effect titration, project on inhibitors of MDM2 ubiquitin ligase, cellular assay, luminescent readout, 384-well plate format (AID 1394); format: functional;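 also: MDM2 E3 inhibitors raise luminescence so EC50 is for signal enhancement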
Chain of E3 ubiquitin-protein ligase Mdm2 (Q00987 whole entry): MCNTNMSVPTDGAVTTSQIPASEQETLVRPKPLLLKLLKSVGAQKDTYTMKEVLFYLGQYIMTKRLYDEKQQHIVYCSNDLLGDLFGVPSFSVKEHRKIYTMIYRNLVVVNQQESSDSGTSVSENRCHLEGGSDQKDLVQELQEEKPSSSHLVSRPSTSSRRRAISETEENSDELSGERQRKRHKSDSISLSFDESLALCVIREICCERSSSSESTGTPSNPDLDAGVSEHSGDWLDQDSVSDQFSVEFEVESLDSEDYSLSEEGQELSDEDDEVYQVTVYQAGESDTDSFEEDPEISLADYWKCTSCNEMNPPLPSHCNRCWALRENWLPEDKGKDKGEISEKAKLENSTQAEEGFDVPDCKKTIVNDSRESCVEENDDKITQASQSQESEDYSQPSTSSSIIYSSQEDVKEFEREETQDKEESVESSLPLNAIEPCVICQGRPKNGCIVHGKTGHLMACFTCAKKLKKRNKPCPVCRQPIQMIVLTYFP

[6] = microbe, parasite or virus in culture; format: functional; settings: Mycobacterium tuberculosis
Protein RecA = biological target: T3, Protein RecA (Mycobacterium tuberculosis, UniProt P9WHJ3); experiment: Fluorescence Cell-Free Homogeneous Dose Retest to Identify Inhibitors of RecA-Intein Splicing Activity. [Related pubchem assays (depositor defined):AID2097, AID2223, AID489010, AID492950]; format: functional
T3 sequence (P9WHJ3 whole entry): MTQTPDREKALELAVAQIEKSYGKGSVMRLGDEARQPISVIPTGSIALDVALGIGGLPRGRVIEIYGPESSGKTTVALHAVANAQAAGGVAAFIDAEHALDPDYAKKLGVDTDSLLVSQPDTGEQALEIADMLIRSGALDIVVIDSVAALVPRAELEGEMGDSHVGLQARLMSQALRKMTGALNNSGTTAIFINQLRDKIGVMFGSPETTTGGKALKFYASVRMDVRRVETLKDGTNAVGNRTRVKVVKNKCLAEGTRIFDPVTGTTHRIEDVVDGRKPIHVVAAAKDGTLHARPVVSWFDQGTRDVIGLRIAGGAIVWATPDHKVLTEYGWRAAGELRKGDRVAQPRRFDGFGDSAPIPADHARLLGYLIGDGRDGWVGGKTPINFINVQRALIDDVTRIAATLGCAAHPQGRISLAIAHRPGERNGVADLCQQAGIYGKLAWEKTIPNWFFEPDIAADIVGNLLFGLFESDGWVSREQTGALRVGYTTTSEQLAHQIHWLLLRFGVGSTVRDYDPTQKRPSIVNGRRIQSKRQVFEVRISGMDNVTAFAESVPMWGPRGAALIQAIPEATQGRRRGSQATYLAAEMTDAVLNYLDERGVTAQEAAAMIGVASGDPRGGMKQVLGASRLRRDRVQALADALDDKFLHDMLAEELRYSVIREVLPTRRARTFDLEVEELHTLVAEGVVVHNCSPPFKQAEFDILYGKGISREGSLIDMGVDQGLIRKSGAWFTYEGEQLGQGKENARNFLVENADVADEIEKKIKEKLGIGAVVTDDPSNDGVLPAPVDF

INS1 = experiment: beta cell apoptosis inhibitors, cytokine rescue, dose response, luminescence, retest (AID 449756); format: functional, cell-based; settings: Rattus norvegicus;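 also: cell death triggered by IL-1 beta plus TNF-alpha plus IFN-gamma mixture; protective hits raise ATP signal compared with cytokine alone wells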
[7] = biological target: T4, Heat shock factor protein 1 (Mus musculus, UniProt P38532); experiment: HSF1 potentiators in luciferase reporter cells, confirmation, cell-based, NIH3T3, luminescence, dose retest (AID 435004); format: functional;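 also: stress induced by proteasome inhibitor MG132 added 30 min after compound; luciferase reporter driven by HSF1 response element in NIH3T3 cells; actives raise luminescence as potentiators of the MG132 stress response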
T4 sequence (P38532 whole entry): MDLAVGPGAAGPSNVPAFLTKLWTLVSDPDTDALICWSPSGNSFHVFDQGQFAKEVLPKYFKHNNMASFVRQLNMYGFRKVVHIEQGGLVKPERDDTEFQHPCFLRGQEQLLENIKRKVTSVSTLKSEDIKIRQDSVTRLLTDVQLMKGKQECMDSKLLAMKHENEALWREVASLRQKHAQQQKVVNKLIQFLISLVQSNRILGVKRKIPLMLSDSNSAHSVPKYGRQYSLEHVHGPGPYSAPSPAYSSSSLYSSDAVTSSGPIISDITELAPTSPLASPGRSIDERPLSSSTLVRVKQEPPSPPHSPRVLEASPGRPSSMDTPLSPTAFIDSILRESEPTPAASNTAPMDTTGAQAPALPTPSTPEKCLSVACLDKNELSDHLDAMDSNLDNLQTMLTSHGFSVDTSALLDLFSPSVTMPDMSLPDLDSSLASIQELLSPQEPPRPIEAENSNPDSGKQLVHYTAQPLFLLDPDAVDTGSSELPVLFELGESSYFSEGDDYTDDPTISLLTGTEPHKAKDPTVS

[8] = tested on: Streptococcus sp. 'group A'; experiment: growth inhibition of control SK(-) GAS strain, dose response, counter-screen for streptokinase expression inhibitor project, luminescence, kanamycin, BacTiterGlo, confirmation (AID 1900); format: functional, organism-based
[9] = biological target: Hepatocyte nuclear factor 4-alpha (Homo sapiens, UniProt P41235); format: functional, cell-based;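 also: biochemical luminescence-based dose-response counterscreen measuring inhibition of HNF4 dimerization, run alongside a screen for blockers of ABHD5–perilipin-5 interaction; split luciferase complementation of HNF4 fusion proteins in cell lysate measuring dimerization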
Chain of Hepatocyte nuclear factor 4-alpha (P41235 whole entry, the tested form may be a part): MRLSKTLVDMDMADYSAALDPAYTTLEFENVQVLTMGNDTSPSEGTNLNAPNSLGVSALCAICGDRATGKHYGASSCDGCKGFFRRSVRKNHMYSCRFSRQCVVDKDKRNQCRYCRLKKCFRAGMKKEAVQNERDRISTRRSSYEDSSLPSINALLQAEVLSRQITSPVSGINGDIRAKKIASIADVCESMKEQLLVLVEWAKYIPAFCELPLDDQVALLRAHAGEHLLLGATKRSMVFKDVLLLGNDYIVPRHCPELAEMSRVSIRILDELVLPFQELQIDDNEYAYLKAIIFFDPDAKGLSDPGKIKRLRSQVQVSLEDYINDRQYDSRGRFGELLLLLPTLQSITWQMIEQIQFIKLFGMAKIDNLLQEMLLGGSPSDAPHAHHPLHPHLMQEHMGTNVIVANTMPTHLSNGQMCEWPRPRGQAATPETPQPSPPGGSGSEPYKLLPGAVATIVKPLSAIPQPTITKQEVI

[10] = biological target: T5, ATP-dependent translocase ABCB1 (Homo sapiens, UniProt P08183); experiment: ABCG2 efflux pump inhibitor potency, dose response, Ig-MXP3 cells, JC-1, flow cytometry, set 2 (AID 504566); format: functional; settings: read-out: EC50_MICROM_;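 also: flow cytometry median green fluorescence of retained JC-1 dye; potency of efflux pump inhibition measured as rising substrate retention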
T5 sequence (P08183 whole entry): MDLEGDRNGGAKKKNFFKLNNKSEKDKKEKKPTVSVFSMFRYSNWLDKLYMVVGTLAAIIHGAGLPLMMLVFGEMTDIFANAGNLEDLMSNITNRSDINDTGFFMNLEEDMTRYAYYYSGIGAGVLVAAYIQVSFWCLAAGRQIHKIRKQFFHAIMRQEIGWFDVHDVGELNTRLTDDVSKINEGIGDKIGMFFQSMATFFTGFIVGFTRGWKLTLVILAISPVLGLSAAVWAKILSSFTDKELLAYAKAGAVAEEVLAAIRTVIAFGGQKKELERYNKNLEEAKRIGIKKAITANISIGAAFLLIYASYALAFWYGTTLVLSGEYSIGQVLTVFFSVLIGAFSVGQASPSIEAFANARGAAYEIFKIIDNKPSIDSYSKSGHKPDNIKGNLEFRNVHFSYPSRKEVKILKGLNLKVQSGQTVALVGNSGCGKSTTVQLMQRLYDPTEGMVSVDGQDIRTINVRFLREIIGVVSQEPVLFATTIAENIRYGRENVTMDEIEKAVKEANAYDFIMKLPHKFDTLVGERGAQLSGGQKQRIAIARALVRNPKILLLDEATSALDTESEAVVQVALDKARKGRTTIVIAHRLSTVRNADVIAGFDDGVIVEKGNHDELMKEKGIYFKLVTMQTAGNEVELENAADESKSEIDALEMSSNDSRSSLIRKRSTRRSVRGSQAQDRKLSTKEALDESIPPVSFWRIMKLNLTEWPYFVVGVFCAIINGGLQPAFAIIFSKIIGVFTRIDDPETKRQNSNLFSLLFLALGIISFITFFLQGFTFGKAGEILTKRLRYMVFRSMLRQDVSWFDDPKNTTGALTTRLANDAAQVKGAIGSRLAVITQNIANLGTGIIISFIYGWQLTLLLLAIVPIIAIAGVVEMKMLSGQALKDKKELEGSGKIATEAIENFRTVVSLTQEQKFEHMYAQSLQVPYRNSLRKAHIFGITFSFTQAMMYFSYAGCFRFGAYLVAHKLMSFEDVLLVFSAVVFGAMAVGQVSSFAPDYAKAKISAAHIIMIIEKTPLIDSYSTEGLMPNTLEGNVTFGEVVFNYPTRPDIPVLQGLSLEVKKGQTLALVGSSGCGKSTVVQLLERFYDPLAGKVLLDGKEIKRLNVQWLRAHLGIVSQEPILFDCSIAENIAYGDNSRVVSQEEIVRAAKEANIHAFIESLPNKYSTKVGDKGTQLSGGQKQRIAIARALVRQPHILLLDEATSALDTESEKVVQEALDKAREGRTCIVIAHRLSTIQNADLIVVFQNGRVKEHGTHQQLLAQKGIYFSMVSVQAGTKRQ

[11] = biological target: T5, ATP-dependent translocase ABCB1; experiment: ABCB1 efflux inhibitor potency, dose response, Jurkat-DNR cells, JC-1, flow cytometry, set 2 (AID 504569); format: functional; settings: read-out: EC50_MICROM_;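 also: potency of pump inhibitors that raise cellular JC-1 green fluorescence up to the nicardipine level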

For `Oc1[nH]c2ccccc2c1N=NC(=S)N1CCOCC1`, which AC50 [1] is on record?
Its AC50 is > 380 µM (inactive).

And the IC50 [2]?
Its IC50 is 4.03 µM (active).

What about the EC50 (cells [3]) of the same molecule?
Its EC50 is > 350 µM (not active).

What about the EC50 (cells [4]) of the same molecule?
The EC50 was 7.37 µM (active).

And the EC50 (Streptococcus)?
Its EC50 is 5.64 µM (active).

And the EC50 (Streptokinase A)?
Its EC50 is > 150 µM (not active).

What about the IC50 (Nonstructural protein 1) of the same molecule?
Its IC50 is 4.88 µM (active).

And the EC50 [5]?
The EC50 was 2.24 µM (not active).

And the CC50 [6]?
Its CC50 is 5.25 µM (active).

What about the EC50 (Protein RecA) of the same molecule?
The EC50 was 12.9 µM (active).

And the AC50 (INS1)?
Its AC50 is 2.25 µM (active).

What about the EC50 [7] of the same molecule?
The EC50 was 3.31 µM (inconclusive).

What about the EC50 [8] of the same molecule?
The EC50 was 0.271 µM (active).

For `Cc1cccc(C)c1NC(=O)C(c1ccc(-c2ccccc2)cc1)n1c(=O)c(-c2ccco2)nc2ccccc21` (stereo unspecified), which IC50 [9] is on record?
The IC50 was 1.34 µM (active).

With `Cc1ccc(-c2cc3nc(C)cc(N4CCN(C(=O)c5ccoc5)CC4)n3n2)cc1` as the molecule, how does the EC50 [10] read?
The EC50 was 4.95 µM (active).

What about the EC50 [11] of the same molecule?
The EC50 was 5.56 µM (active).
